Laboratory results: the SangsterLogP compilation

How the values were obtained:
[1] = method code SF-HPLC, from DOI: 10.1021/js990112s, PMID: 10585226

SMILES | logP | logP [1]
N#Cc1ccc(-c2nccnc2-c2ccc(C#N)cc2)cc1 | 2.52 | 
CCOc1cnc(-c2ccc(OC)cc2)c(-c2ccc(OC)cc2)n1 | 4.22 | 
CCc1nc(-c2ccccc2)cnc1-c1ccccc1 | 4.94 | 
COc1ccc(-c2ncc(Cl)nc2-c2ccc(OC)cc2)cc1 | 4.3 | 
Brc1ccc(-c2nccnc2-c2ccc(Br)cc2)cc1 | 3.41 | 
[O-][n+]1cc(Cl)nc(-c2ccc(Cl)cc2)c1-c1ccc(Cl)cc1 | 3.66 | 
COc1ccc(-c2cnccn2)cc1 |  | 2.24
Cc1nc(Cl)c(C)nc1Cl | 2.4 | 
CC(C)c1cnc(-c2ccccc2)c(-c2ccccc2)n1 | 4.71 | 
Cc1nc(C)c(-c2ccccc2)nc1-c1ccccc1 | 4.83 | 
COc1ccc(-c2ncc(C)nc2-c2ccc(OC)cc2)cc1 | 3.66 | 
CCOc1cnc(-c2ccccc2)c(-c2ccccc2)n1 | 4.73 | 
COc1ccc(-c2nc(C)c(C)nc2-c2ccc(OC)cc2)cc1 | 4.1 | 
COc1ccc(-c2nccnc2-c2ccc(OC)cc2)cc1 | 3.42 | 
COc1ccc(-c2ncc(C#N)nc2-c2ccc(OC)cc2)cc1 | 3.7 | 
c1ccc(-c2nccnc2-c2ccccc2)cc1 | 3.19 | 
COc1ccc(-c2ncc(OC)nc2-c2ccc(OC)cc2)cc1 | 4.47 | 
c1ccc(-c2cnccn2)cc1 |  | 2.07
Cc1ncc(C)[n+]([O-])c1Cl | 0.19 | 
Clc1cnc(-c2ccccc2)c(-c2ccccc2)n1 | 4.05 | 
COc1ccccc1Cc1cnc(-c2ccccc2)c(-c2ccccc2)n1 | 5.2 | 
Cc1nc(-c2ccccc2)cnc1-c1ccccc1 | 4.28 | 
COc1cnc(-c2ccccc2)c(-c2ccccc2)n1 | 4.21 | 
Cc1ccc(-c2nccnc2-c2ccc(C)cc2)cc1 | 4.1 | 
Cc1cnc(-c2ccccc2)c(-c2ccccc2)n1 | 3.52 | 
COC(=O)c1cnc(-c2ccc(OC)cc2)c(-c2ccc(OC)cc2)n1 | 3.41 | 
Cc1nc(Cl)c(C)[n+]([O-])c1Cl | 1.08 | 
Cc1c[n+]([O-])c(C)c(Cl)n1 | 0.44 | 
Fc1ccc(-c2nccnc2-c2ccc(F)cc2)cc1 | 3.75 | 
